Measurements reported in ChEMBL document CHEMBL1142831, “Identification of a potent non-hydroxamate histone deacetylase inhibitor by mechanism-based drug design” (Bioorg Med Chem Lett, 2005).

How the values were obtained:
Histone deacetylase = assay: Inhibitory concentration against histone deacetylase of HeLa cells; assay type: cell-based, Homo sapiens
[1] = target: Histone deacetylase (Homo sapiens) (UniProt Q13547+O15379+Q9UBN7+Q92769+Q9UQL6+Q8WUI4+Q9BY41+Q96DB2+P56524+Q9UKV0+Q969S8); details: HeLa, at 100 µM
Description: Percentage inhibition against histone deacetylase of HeLa cells at 100 uM

| IC50 (Histone deacetylase) | inhibition [1] | SMILES |
| --- | --- | --- |
| 3 µM | 96% | O=C(CS)NCCCCCCC(=O)Nc1ccccc1 |
| 7500 µM | 10% | CS(=O)(=O)NCCCCCC(=O)Nc1ccccc1 |
| 230 µM | 33% | CS(=O)(=O)CCCCCCC(=O)Nc1ccccc1 |

Further lines, the compound ahead of its results:

| SMILES | IC50 (Histone deacetylase) | inhibition [1] |
| --- | --- | --- |
| O=C(CS)NCCCCC(=O)Nc1ccccc1 | 11 µM | 88% |
| CC(=O)SCC(=O)NCCCCCC(=O)Nc1ccccc1 | 22 µM | 72% |
| O=C(CCS)NCCCCCC(=O)Nc1ccccc1 | 24 µM | 78% |
| O=C(CS)NCCCCCC(=O)Nc1ccccc1 | – | 99% |
| NCC(=O)NCCCCCC(=O)Nc1ccccc1 | > 100 µM | – |
| O=C(CO)NCCCCCC(=O)Nc1ccccc1 | > 100 µM | – |
